Source: patent US20110060000A1, “ACRIDINE ANALOGS IN THE TREATMENT OF GLIOMAS” (priority 2009, published 2011)

Key:
[1] = system: C6; assay: TUNEL labeling in C6; assay type: cell-based, rat; conditions: C6, 24 hours
Protocol: C6 were plated on glass coverslips. Cells were fixed and stained accordingly to manufacturer instructions. Propidium staining of the nuclei was replaced by Hoechst included in the mounting media. Several images were acquired with a high resolution camera on a microscope equipped with a 10× long working distance dry lens and analyzed with powerful commercial software. Results were expressed in the graph as green labeled pixel counts. The images from the top to the bottom are respectively from N.T., DMSO, Thap 20 nM, Thap 200 nM, STS100 nM. The blue images reflect nuclear staining while the images on the right represent BRDU staining.
Thereafter, cells were harvested and protein extracted. Procaspase 12 band at 65 kDa was identified. In some of the treatments, the active product at 45 kDa was also detected. […] Conversely, in C6, higher GRP78 levels and the cell environment reflect significant caspase activation. […] Caspase activation in ERSR conditions was also confirmed with a TUNEL based apoptosis detection system in C6. […] High resolution images of the experiments were acquired and image morphometric analysis was performed to determine quantitative parameters of the staining as previously described (Pascale et al., 2004, “Translocation of protein kinase C-betaII in astrocytes requires organized actin cytoskeleton and is not accompanied by synchronous RACK1 relocation.” Glia 46(2): 169-82). […]

[2] = system: subcutaneous U87-MG gliomas; assay: Mice bearing subcutaneous U87-MG gliomas; assay type: in vivo
Description: The estimated survival prolongment is 14 days in mice life which compares at 851 days in human life based on a life expectancy of 18 months in mice and 90 years in human. Also, since one animal was tumor-free at the end of the treatment that translates in an expected 16% cure rate.
FIG. 29a graphs % tumor weight/control as a function of days after implantation. […] Such a profile indicates effectiveness in vivo for both treatment and for prevention of relapse. FIG. 29b graphs % animal survival as a function of days after implantation. […] Such a profile indicates effectiveness in vivo for both treatment and for prevention of relapse.
Mice bearing subcutaneous gliomas were received daily oral administration of 200 mg/kg of quinacrine. […] In FIG. 29 is shown the effect of 100 mg/kg of quinacrine and 10 mg/kg 9-aminoacridine in Mice bearing subcutaneous U87-MG gliomas.

[3] = system: C6 cells; conditions: tested at less than 1 μM; cited from earlier work
[4] = system: glioma cells; assay: Gliotoxicity, cell line not stated; assay type: cell-based
Description: Spiperone is a selective D2 dopamine receptor antagonist. This drug is used in the treatment of schizophrenia and other hallucinatory states. […] In an effort to develop Structure-Activity Relationships around the chosen compounds, a search of commercially available compounds that are either close structural analogs of these lead compounds (for example, acridine and quinoline analogs of quinacrine) or are related to these in terms of their pharmacological activity (dopamine receptor antagonists related to spiperone) was performed.

[5] = system: U87-MG skin xenograft tumor explants; assay: U87-MG skin xenograft tumor explants, ERSR markers; assay type: in vivo, mice; conditions: samples after 7 and 21 days
Description: U7 represents vehicle treated sample after 7 days. U21 represents vehicle treated sample after 21 days. Q7 represents quinacridine-treated sample after 7 days. Q21 represents quinacridine-treated sample after 21 days. 9AA-7 represents 9-aminoacridine-treated sample after 7 days. 9AA-21 represents 9-aminoacridine-treated sample after 21 days.

[6] = system: tumor cells; conditions: in vitro and in vivo; cited from earlier work
[7] = system: platelets; conditions: cited from earlier work
[8] = intrapleural, 100 mg/day in 50 ml saline for 4 days; cited from earlier work
[9] = 200 mg/kg daily oral for 14 days
[10] = full dose over about 45 days, Q oral, 9-AA I.P.
[11] = half dose (maintenance dose) up to about 60 days

## C/C=C(/C)C(=O)O[C@H]1C(C)=C2[C@H]([C@@H]1OC(=O)CCCCCCC)[C@@](C)(OC(C)=O)C[C@H](OC(=O)CCC)[C@@]1(O)[C@H]2OC(=O)[C@@]1(C)O [THAP, thapsigargin]
[1]
  TUNEL labeling: clear increase of TUNEL labeling

## CCN(CC)CCCC(C)Nc1c2ccc(Cl)cc2nc2ccc(OC)cc12 (centres unmarked) [quinacrine]
[2]; 100 mg/kg of quinacrine and 10 mg/kg 9-aminoacridine
  antiglioma action: powerful antiglioma action
[2]; 200 mg/kg daily oral
  delay in tumor growth: 14 days
  tumor growth after withdrawal of treatment versus controls: significant reduction in tumor growth than controls
[2]; [9]
  estimated survival prolongment in mice life: 14 days
  tumor in one of the treated animals: disappearance of the tumor
  tumor size in treated animals: tumors decrease in size
[2]; 200 mg/kg daily oral, at 11 days
  effect on tumor growth: already significant
[2]; 200 mg/kg daily oral, at 21 days
  inhibition of tumor growth: 6-7 folds
[2]; [10]
  animal survival rate compared to control: increased survival rate
  tumor size compared to control: decrease in tumor size
[2]; [11]
  animal survival rate compared to control: survival rate was high
  tumor size compared to control: tumor size remained relatively constant
[2]; life expectancy 18 months in mice, 90 years in human
  delay / survival prolongment translated to human life: 851 days
[2]; quinacrine 200 mg/kg daily oral, one animal tumor-free
  cure rate: 16%
[3]
  killing of C6 cells: ineffective in killing C6 cells
[4]
  cytotoxicity in human cells versus rat cells: higher cytotoxicity in human cells than in rat cells
[4]; cell line not stated
  gliotoxicity: by far the most effective gliotoxic compound
[5]
  ERSR activation and GRP78 target protein in tumor explants: activaiton of ERSR and changes in GRP78 target protein
  caspase 12 activation in tumor explants: activation of caspase 12 is evident
[6]
  toxicity to tumor versus normal cells: more toxic to tumor than to normal cells
[7]
  alpha-granule release reaction of platelets: prevent the alpha-granule release reaction of platelets
[8]
  peak concentration: less than 10 ng/ml
